Drawing on patent publication US20230365592A1 (Agios Pharmaceuticals, Inc., priority 2022, published 2023), this text covers AC50 for 27 compounds.

In one assay the target is T1, human PAH with the R408W mutation (Homo sapiens, UniProt P00439, R408W).
T1 construct: expressed in transfected cells
T1 sequence (P00439 1-452 R408W): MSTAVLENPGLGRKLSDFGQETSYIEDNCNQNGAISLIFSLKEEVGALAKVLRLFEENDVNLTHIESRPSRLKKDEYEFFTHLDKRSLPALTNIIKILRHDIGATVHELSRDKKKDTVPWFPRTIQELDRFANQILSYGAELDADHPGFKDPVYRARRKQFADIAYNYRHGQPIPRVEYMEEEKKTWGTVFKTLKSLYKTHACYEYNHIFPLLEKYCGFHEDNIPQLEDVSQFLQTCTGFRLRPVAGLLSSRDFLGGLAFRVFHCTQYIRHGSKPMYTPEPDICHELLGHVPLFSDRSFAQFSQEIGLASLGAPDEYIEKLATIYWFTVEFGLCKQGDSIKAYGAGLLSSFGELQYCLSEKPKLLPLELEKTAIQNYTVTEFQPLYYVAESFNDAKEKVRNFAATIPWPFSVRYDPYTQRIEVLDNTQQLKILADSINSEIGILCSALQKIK
The experiment in a line: Cell Based Phenylalanine Flux Assay.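 Further: after compound treatment, cells received sepiapterin plus isotope-labelled Phenylalanine for 4 hours, then labelled Tyrosine in the medium was quantified, 10-point 2-fold dilution series run in duplicate.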 The conditions noted are these: A375 cells expressing R408W PAH; 24 hrs with compound, then 20 µM sepiapterin and 800 µM 13C9,15N-Phenylalanine for 4 hours; 13C-Tyrosine by LC-MS; average where tested multiple times; read-out: AC50.
What is called AC50 is the concentration at which the activity in the assay is half-maximal. On to `O=C(c1nnc(C2CC(F)(F)C2)o1)N1CCc2[nH]cnc2C1c1cc2cccc(Cl)n2n1` (stereo not drawn), for which the AC50 is greater than 5 µM. The same measure, in the same setting: as for `Cc1nc(C(C)O)oc1C(=O)N1CCc2[nH]cnc2C1c1cc2ccccn2n1` [4S enantiomer of (1S)-1-14-methyl-5-[4-{pyrazolo[1,5-a]pyrid], the figure is 1 to 5 µM.

In the case of `O=C(C1CC1(F)F)N1CCc2[nH]cnc2C1c1cc2ccccn2n1` [4S enantiomer of 5-[(1S)-2,2-difluorocyclopropanecarbonyll-4], the AC50 lay within 1 to 5 µM. The same measure, in the same setting: as for `Cc1c(C2c3nc[nH]c3CCN2C(=O)c2nnc(-c3cnn(C)c3)o2)nn2ccccc12` (stereo not drawn), the figure is 1 to 5 µM.

The assay is the same for the next values; noted with them: A375 cells expressing human PAH R408W; 24 hrs compound incubation; 13C-Tyrosine by LC-MS; average where tested multiple times; read-out: AC50.
Consider `O=C(c1nnc(-c2c(F)cccc2F)o1)N1CCc2[nH]cnc2C1c1cc2ccccn2n1` (stereo not drawn) [Example 2524, (5-(2,6-difluorophenyl)-1,3,4-oxadiazol-2-yl)(4-(pyrazolo[1,5-a]pyridin-2-yl)-6,7-dihydro-1H-imidazo[4,5-c]pyridin-5(4H)-yl)methanone], for which the AC50 was in the range of 0.5 to 1 µM. Turning to `Cc1cccn2nc([C@@H]3c4nc[nH]c4CCN3c3nnc(-c4cnccn4)o3)cc12` [Example 2157, (S)-2-(4-(4-methylpyrazolo[1,5-a]pyridin-2-yl)-1,4,6,7-tetrahydro-5H-imidazo[4,5-c]pyridin-5-yl)-5-(pyrazin-2-yl)-1,3,4-oxadiazole], the concentration at half-maximal activity (AC50) lay within 0.5 to 1 µM. `COc1cccn2nc([C@H]3c4nc[nH]c4CCN3c3nnc(C(F)(F)F)o3)cc12` [Example 2165, (R)-2-(4-(4-methoxypyrazolo[1,5-a]pyridin-2-yl)-1,4,6,7-tetrahydro-5H-imidazo[4,5-c]pyridin-5-yl)-5-(trifluoromethyl)-1,3,4-oxadiazole]: the AC50 was greater than 5 µM. Turning to `Fc1cccn2nc([C@H]3c4nc[nH]c4CCN3c3ccccn3)cc12` [Example 1976, (R)-4-(4-fluoropyrazolo[1,5-a]pyridin-2-yl)-5-(pyridin-2-yl)-4,5,6,7-tetrahydro-1H-imidazo[4,5-c]pyridine], the AC50 was greater than 5 µM.

In the case of `FC(F)(F)Oc1cccn2nc([C@@H]3c4nc[nH]c4CCN3c3nnc(C4CC4)o3)cc12` [Example 2314, (S)-2-cyclopropyl-5-(4-(4-(trifluoromethoxy)pyrazolo[1,5-a]pyridin-2-yl)-1,4,6,7-tetrahydro-5H-imidazo[4,5-c]pyridin-5-yl)-1,3,4-oxadiazole], the half-maximal activity concentration (AC50) is less than 0.5 µM.

The assay is the same for the next values; noted with them: A375 cells expressing human R408W PAH; 24 hrs compound incubation; 13C-Tyrosine by LC-MS; average where tested multiple times; read-out: AC50.
Take `CC(C)(O)c1nc(C(F)F)c(C(=O)N2CCc3[nH]cnc3[C@H]2c2cc3cc(F)ccn3n2)o1` [Example 1084, (S)-(4-(difluoromethyl)-2-(2-hydroxypropan-2-yl)oxazol-5-yl)(4-(5-fluoropyrazolo[1,5-a]pyridin-2-yl)-6,7-dihydro-1H-imidazo[4,5-c]pyridin-5(4H)-yl)methanone]: the AC50 is less than 0.5 µM.

Take `O=C(c1cnn2ccccc12)N1CCc2[nH]cnc2[C@H]1c1cc2c(C(F)F)cccn2n1` [Example 1730, (S)-(4-(4-(difluoromethyl)pyrazolo[1,5-a]pyridin-2-yl)-6,7-dihydro-1H-imidazo[4,5-c]pyridin-5(4H)-yl)(pyrazolo[1,5-a]pyridin-3-yl)methanone]: the AC50 is less than 0.5 µM. For `O=C(c1nnc(-c2ccncc2)o1)N1CCc2[nH]cnc2[C@H]1c1cc2c(F)cccn2n1` [Example 830, (S)-(4-(4-fluoropyrazolo[1,5-a]pyridin-2-yl)-6,7-dihydro-1H-imidazo[4,5-c]pyridin-5(4H)-yl)(5-(pyridin-4-yl)-1,3,4-oxadiazol-2-yl)methanone], the AC50 was less than 0.5 µM. For the compound `Cn1ccc(-c2nnc(C(=O)N3CCc4[nH]cnc4[C@H]3c3cc4ccc(F)cn4n3)o2)n1` [Example 1102, (S)-(4-(6-fluoropyrazolo[1,5-a]pyridin-2-yl)-6,7-dihydro-1H-imidazo[4,5-c]pyridin-5(4H)-yl)(5-(1-methyl-1H-pyrazol-3-yl)-1,3,4-oxadiazol-2-yl)methanone], the AC50 is 0.5 to 1 µM. Regarding `Cn1nc(Cl)nc1C(=O)N1CCc2[nH]cnc2[C@@H]1c1cc2c(Cl)cccn2n1` [Example 1055, (R)-(3-chloro-1-methyl-1H-1,2,4-triazol-5-yl)(4-(4-chloropyrazolo[1,5-a]pyridin-2-yl)-6,7-dihydro-1H-imidazo[4,5-c]pyridin-5(4H)-yl)methanone], the AC50 was 1 to 5 µM.

For the compound `Cc1ncccc1-c1nnc(C(=O)N2CCc3[nH]cnc3[C@@H]2c2cc3cccc(F)n3n2)o1` [Example 1495, (R)-(4-(7-fluoropyrazolo[1,5-a]pyridin-2-yl)-6,7-dihydro-1H-imidazo[4,5-c]pyridin-5(4H)-yl)(5-(2-methylpyridin-3-yl)-1,3,4-oxadiazol-2-yl)methanone], the AC50 was greater than 5 µM. With `O=C(c1nnc(-c2ncccc2F)o1)N1CCc2[nH]cnc2[C@@H]1c1cc2c(C(F)(F)F)cccn2n1` [Example 904, (R)-(5-(3-fluoropyridin-2-yl)-1,3,4-oxadiazol-2-yl)(4-(4-(trifluoromethyl)pyrazolo[1,5-a]pyridin-2-yl)-6,7-dihydro-1H-imidazo[4,5-c]pyridin-5(4H)-yl)methanone], the AC50 is greater than 5 µM. Regarding `COc1ccc2c(C(=O)N3CCc4[nH]cnc4[C@H]3c3cc4cccc(C)n4n3)cnn2c1` [Example 1718, (S)-(6-methoxypyrazolo[1,5-a]pyridin-3-yl)(4-(7-methylpyrazolo[1,5-a]pyridin-2-yl)-6,7-dihydro-1H-imidazo[4,5-c]pyridin-5(4H)-yl)methanone], the AC50 fell in the range of 0.5 to 1 µM. Take `Cc1cc(-c2nnc(C(=O)N3CCc4[nH]cnc4[C@@H]3c3cc4c(F)cccn4n3)o2)nn1C` [Example 882, (R)-(5-(1,5-dimethyl-1H-pyrazol-3-yl)-1,3,4-oxadiazol-2-yl)(4-(4-fluoropyrazolo[1,5-a]pyridin-2-yl)-6,7-dihydro-1H-imidazo[4,5-c]pyridin-5(4H)-yl)methanone]: the concentration at half-maximal activity (AC50) was greater than 5 µM.

With `COc1ccc(-c2nnc(C(=O)N3CCc4[nH]cnc4[C@@H]3c3cc4c(C(F)(F)F)cccn4n3)o2)nc1` [Example 933, (R)-(5-(5-methoxypyridin-2-yl)-1,3,4-oxadiazol-2-yl)(4-(4-(trifluoromethyl)pyrazolo[1,5-a]pyridin-2-yl)-6,7-dihydro-1H-imidazo[4,5-c]pyridin-5(4H)-yl)methanone], the half-maximal activity concentration (AC50) is greater than 5 µM.

Consider `O=C(Cc1nc(C(F)(F)F)cs1)N1CCc2[nH]cnc2[C@H]1c1cc2ccccn2n1` [Example 608, (S)-1-(4-(pyrazolo[1,5-a]pyridin-2-yl)-6,7-dihydro-1H-imidazo[4,5-c]pyridin-5(4H)-yl)-2-(4-(trifluoromethyl)thiazol-2-yl)ethanone], for which the AC50 was 1 to 5 µM. On the same count and under the same terms, to `Cn1nccc1-c1nnc(C(=O)N2CCc3[nH]cnc3[C@H]2c2cc3c(F)cccn3n2)o1` [Example 1018, (S)-(4-(4-fluoropyrazolo[1,5-a]pyridin-2-yl)-6,7-dihydro-1H-imidazo[4,5-c]pyridin-5(4H)-yl)(5-(1methyl-1H-pyrazol-5-yl)-1,3,4-oxadiazol-2-yl)methanone] belongs less than 0.5 µM. As for `O=C(c1nnc(-c2ccn(C(F)(F)F)n2)o1)N1CCc2[nH]cnc2[C@@H]1c1cc2c(OC(F)F)cccn2n1` [Example 1709, (R)-(4-(4-(difluoromethoxy)pyrazolo[1,5-a]pyridin-2-yl)-6,7-dihydro-1H-imidazo[4,5-c]pyridin-5(4H)-yl)(5-(1-(trifluoromethyl)-1H-pyrazol-3-yl)-1,3,4-oxadiazol-2-yl)methanone], the half-maximal activity concentration (AC50) is greater than 5 µM.

Regarding `Cc1ncccc1-c1nnc(C(=O)N2CCc3[nH]cnc3[C@H]2c2cc3cccc(C)n3n2)o1` [Example 1358, (S)-(4-(7-methylpyrazolo[1,5-a]pyridin-2-yl)-6,7-dihydro-1H-imidazo[4,5-c]pyridin-5(4H)-yl)(5-(2-methylpyridin-3-yl)-1,3,4-oxadiazol-2-yl)methanone], the AC50 is less than 0.5 µM. For the compound `O=C(c1ocnc1C(F)(F)F)N1CCc2[nH]cnc2[C@H]1c1cc2cccc(C(F)(F)F)n2n1` [Example 1176, (S)-(4-(trifluoromethyl)oxazol-5-yl)(4-(7-(trifluoromethyl)pyrazolo[1,5-a]pyridin-2-yl)-6,7-dihydro-1H-imidazo[4,5-c]pyridin-5(4H)-yl)methanone], the half-maximal activity concentration (AC50) was less than 0.5 µM. `Cc1nc(C(C)(C)O)oc1C(=O)N1CCc2[nH]cnc2[C@H]1c1cc2c(C)cccn2n1` [Example 754, (S)-(2-(2-hydroxypropan-2-yl)-4-methyloxazol-5-yl)(4-(4-methylpyrazolo[1,5-a]pyridin-2-yl)-6,7-dihydro-1H-imidazo[4,5-c]pyridin-5(4H)-yl)methanone]: the AC50 was less than 0.5 µM. In the case of `Cn1nccc1-c1nnc(C(=O)N2CCc3[nH]cnc3[C@H]2c2cc3cccc(C(F)F)n3n2)o1` [Example 1608, (S)-(4-(7-(difluoromethyl)pyrazolo[1,5-a]pyridin-2-yl)-6,7-dihydro-1H-imidazo[4,5-c]pyridin-5(4H)-yl)(5-(1-methyl-1H-pyrazol-5-yl)-1,3,4-oxadiazol-2-yl)methanone], the AC50 was 0.5 to 1 µM. Same read-out and setting: to `Cn1nc(C(F)F)nc1C(=O)N1CCc2[nH]cnc2[C@H]1c1cc2c(C(F)(F)F)cccn2n1` [Example 1060, (S)-(3-(difluoromethyl)-1-methyl-1H-1,2,4-triazol-5-yl)(4-(4-(trifluoromethyl)pyrazolo[1,5-a]pyridin-2-yl)-6,7-dihydro-1H-imidazo[4,5-c]pyridin-5(4H)-yl)methanone] belongs less than 0.5 µM.
